≈ marks a conversion by molar mass, not a printed value. Calls of active or inactive are those of the source. The rule behind the calls is not given here.
Tests used:
Assay type in all cases: functional
Escherichia coli [1] = assay: Antibacterial activity against Escherichia coli MTCC 443 incubated for 24 hrs by serial dilution method
Talaromyces funiculosus [2] = assay: Antifungal activity against Penicillium funiculosum ATCC 11797 incubated for 24 hrs by serial dilution method
Trichoderma reesei [3] = assay: Antifungal activity against Trichoderma reesei ATCC 13631 incubated for 24 hrs by serial dilution method
Staphylococcus aureus [4] = assay: Antibacterial activity against Staphylococcus aureus MTCC 3381 at 100 ug/ml incubated for 12 hrs by agar disc diffusion assay; settings: for zone of inhibition at 100 µg/mL: MTCC 3381, 12 h, read-out: IZ
Trichoderma reesei [5] = assay: Antifungal activity against Trichoderma reesei ATCC 13631 at 100 ug/ml incubated for 72 hrs by agar disc diffusion assay; settings: for zone of inhibition at 100 µg/mL: ATCC 13631, 72 h, read-out: IZ
Streptomyces griseus [6] = assay: Antibacterial activity against Streptomyces griseus MTCC 4734 at 100 ug/ml incubated for 12 hrs by agar disc diffusion assay; settings: for zone of inhibition at 100 µg/mL: MTCC 4734, 12 h, read-out: IZ
Fusarium oxysporum [7] = assay: Antifungal activity against Fusarium oxysporum ATCC 62506 incubated for 24 hrs by serial dilution method
Fusarium oxysporum [8] = assay: Antifungal activity against Fusarium oxysporum ATCC 62506 at 100 ug/ml incubated for 72 hrs by agar disc diffusion assay; settings: for zone of inhibition at 100 µg/mL: ATCC 62506, 72 h, read-out: IZ
Streptomyces griseus [9] = assay: Antibacterial activity against Streptomyces griseus MTCC 4734 incubated for 24 hrs by serial dilution method
Aspergillus niger [10] = assay: Antifungal activity against Aspergillus niger ATCC 9029 incubated for 24 hrs by serial dilution method
Escherichia coli [11] = assay: Antibacterial activity against Escherichia coli MTCC 443 at 100 ug/ml incubated for 12 hrs by agar disc diffusion assay; settings: for zone of inhibition at 100 µg/mL: MTCC 443, 12 h, read-out: IZ
Bacillus subtilis [12] = assay: Antibacterial activity against Bacillus subtilis MTCC 10619 at 100 ug/ml incubated for 12 hrs by agar disc diffusion assay; settings: for zone of inhibition at 100 µg/mL: MTCC 10619, 12 h, read-out: IZ
Bacillus subtilis [13] = assay: Antibacterial activity against Bacillus subtilis MTCC 10619 incubated for 24 hrs by serial dilution method
Talaromyces funiculosus [14] = assay: Antifungal activity against Penicillium funiculosum ATCC 11797 at 100 ug/ml incubated for 72 hrs by agar disc diffusion assay; settings: for zone of inhibition at 100 µg/mL: ATCC 11797, 72 h, read-out: IZ
Staphylococcus aureus [15] = assay: Antibacterial activity against Staphylococcus aureus MTCC 3381 incubated for 24 hrs by serial dilution method
Aspergillus niger [16] = assay: Antifungal activity against Aspergillus niger ATCC 9029 at 100 ug/ml incubated for 72 hrs by agar disc diffusion assay; settings: for zone of inhibition at 100 µg/mL: ATCC 9029, 72 h, read-out: IZ

Structure (SMILES) | MIC (Talaromyces funiculosus [2]) | inhibition zone (IZ) (Staphylococcus aureus [4]) | zone of inhibition at 100 µg/mL (Streptomyces griseus [6]) [mm] | MIC (Fusarium oxysporum [7]; ATCC 62506, 24 h) [µg/mL] | zone of inhibition at 100 µg/mL (Fusarium oxysporum [8]) [mm] | MIC (Streptomyces griseus [9]; MTCC 4734, 24 h) [µg/mL] | MIC (Aspergillus niger [10]; ATCC 9029, 24 h) [µg/mL] | inhibition zone (IZ) (Bacillus subtilis [12]) | MIC (Bacillus subtilis [13]) | inhibition zone (IZ) (Talaromyces funiculosus [14]) | MIC (Staphylococcus aureus [15]) | MIC (Escherichia coli [1]; MTCC 443, 24 h) [µg/mL] | zone of inhibition at 100 µg/mL (Staphylococcus aureus [4]) [mm] | zone of inhibition at 100 µg/mL (Escherichia coli [11]) [mm] | MIC (Staphylococcus aureus [15]; MTCC 3381, 24 h) [µg/mL] | MIC (Trichoderma reesei [3]) | inhibition zone (IZ) (Trichoderma reesei [5]) | MIC (Fusarium oxysporum [7]) | inhibition zone (IZ) (Fusarium oxysporum [8]) | inhibition zone (IZ) (Aspergillus niger [16]) | further results
O=C1Oc2ccc(Cl)cc2N/C1=C\C(=O)c1ccc(C2CCCCC2)cc1 | inactive | inactive | 6 | 25 (≈ 65.5 µM) | 14 | 100 (≈ 262 µM) | 25 (≈ 65.5 µM) | inactive | inactive | inactive | inactive |  |  |  |  |  |  |  |  |  | MIC (Escherichia coli [1]): inactive; MIC (Trichoderma reesei [3]; ATCC 13631, 24 h): 25 µg/mL (≈ 65.5 µM); zone of inhibition at 100 µg/mL (Trichoderma reesei [5]): 16 mm; inhibition zone (IZ) (Escherichia coli [11]): inactive; zone of inhibition at 100 µg/mL (Aspergillus niger [16]): 10 mm
O=C(N[C@H](CO)[C@H](O)c1ccc([N+](=O)[O-])cc1)C(Cl)Cl [CHLORAMPHENICOL] |  |  | 28 |  |  | 3.12 (≈ 9.67 µM) |  |  |  |  |  | 6.25 (≈ 19.3 µM) | 22 | 32 | 6.25 (≈ 19.3 µM) |  |  |  |  |  | zone of inhibition at 100 µg/mL (Bacillus subtilis [12]): 26 mm; MIC (Bacillus subtilis [13]; MTCC 10619, 24 h): 6.25 µg/mL (≈ 19.3 µM)
Cc1ccc2c(c1)N/C(=C\C(=O)C1CC1)C(=O)O2 | inactive |  | 6 |  |  | 100 (≈ 411 µM) |  | inactive | inactive | inactive |  | 100 (≈ 411 µM) | 14 | 8 | 12.5 (≈ 51.4 µM) | inactive | inactive | inactive | inactive | inactive | MIC (Aspergillus niger [10]): inactive
O=C1Oc2ccccc2N/C1=C\C(=O)c1ccc(-c2ccccc2)cc1 |  | inactive |  |  |  |  | 100 (≈ 293 µM) | inactive | inactive |  | inactive | 25 (≈ 73.2 µM) |  | 14 |  | inactive | inactive | inactive | inactive |  | MIC (Talaromyces funiculosus [2]; ATCC 11797, 24 h): 25 µg/mL (≈ 73.2 µM); inhibition zone (IZ) (Streptomyces griseus [6]): inactive; MIC (Streptomyces griseus [9]): inactive; zone of inhibition at 100 µg/mL (Talaromyces funiculosus [14]): 14 mm; zone of inhibition at 100 µg/mL (Aspergillus niger [16]): 4 mm
CC(=O)N1CCN(c2ccc(OCC3COC(Cn4ccnc4)(c4ccc(Cl)cc4Cl)O3)cc2)CC1 (stereo not drawn) [KETOCONAZOLE] |  |  |  | 12.5 (≈ 23.5 µM) | 20 |  | 12.5 (≈ 23.5 µM) |  |  |  |  |  |  |  |  |  |  |  |  |  | MIC (Talaromyces funiculosus [2]; ATCC 11797, 24 h): 25 µg/mL (≈ 47 µM); MIC (Trichoderma reesei [3]; ATCC 13631, 24 h): 25 µg/mL (≈ 47 µM); zone of inhibition at 100 µg/mL (Trichoderma reesei [5]): 24 mm; zone of inhibition at 100 µg/mL (Talaromyces funiculosus [14]): 22 mm; zone of inhibition at 100 µg/mL (Aspergillus niger [16]): 18 mm
O=C1Oc2ccc(Cl)cc2N/C1=C\C(=O)c1cccc2ccccc12 | inactive | inactive |  |  |  |  |  | inactive | inactive | inactive | inactive |  |  |  |  | inactive | inactive | inactive | inactive | inactive | MIC (Escherichia coli [1]): inactive; inhibition zone (IZ) (Streptomyces griseus [6]): inactive; MIC (Streptomyces griseus [9]): inactive; MIC (Aspergillus niger [10]): inactive; inhibition zone (IZ) (Escherichia coli [11]): inactive
O=C1Oc2ccccc2N/C1=C\C(=O)c1cccc2ccccc12 | inactive | inactive |  |  |  |  | 100 (≈ 317 µM) | inactive | inactive | inactive | inactive |  |  |  |  |  |  | inactive | inactive |  | MIC (Escherichia coli [1]): inactive; MIC (Trichoderma reesei [3]; ATCC 13631, 24 h): 100 µg/mL (≈ 317 µM); zone of inhibition at 100 µg/mL (Trichoderma reesei [5]): 4 mm; inhibition zone (IZ) (Streptomyces griseus [6]): inactive; MIC (Streptomyces griseus [9]): inactive; inhibition zone (IZ) (Escherichia coli [11]): inactive; zone of inhibition at 100 µg/mL (Aspergillus niger [16]): 4 mm
Cc1ccc2c(c1)N/C(=C\C(=O)c1ccc(C3CCCCC3)cc1)C(=O)O2 | inactive | inactive |  | 50 (≈ 138 µM) | 12 |  | 100 (≈ 277 µM) | inactive | inactive | inactive | inactive |  |  |  |  | inactive | inactive |  |  | inactive | MIC (Escherichia coli [1]): inactive; inhibition zone (IZ) (Streptomyces griseus [6]): inactive; MIC (Streptomyces griseus [9]): inactive; inhibition zone (IZ) (Escherichia coli [11]): inactive
O=C1Oc2ccc([N+](=O)[O-])cc2N/C1=C\C(=O)c1cccc2ccccc12 | inactive | inactive | 4 | 50 (≈ 139 µM) | 10 | 100 (≈ 278 µM) |  |  |  | inactive | inactive | 100 (≈ 278 µM) |  | 10 |  | inactive | inactive |  |  | inactive | MIC (Aspergillus niger [10]): inactive; zone of inhibition at 100 µg/mL (Bacillus subtilis [12]): 4 mm; MIC (Bacillus subtilis [13]; MTCC 10619, 24 h): 100 µg/mL (≈ 278 µM)
Cc1ccc2c(c1)N/C(=C\C(=O)c1ccc(-c3ccccc3)cc1)C(=O)O2 | inactive |  | 18 |  |  | 12.5 (≈ 35.2 µM) |  |  |  | inactive |  | 25 (≈ 70.3 µM) | 11 | 20 | 12.5 (≈ 35.2 µM) | inactive | inactive | inactive | inactive | inactive | MIC (Aspergillus niger [10]): inactive; zone of inhibition at 100 µg/mL (Bacillus subtilis [12]): 12 mm; MIC (Bacillus subtilis [13]; MTCC 10619, 24 h): 25 µg/mL (≈ 70.3 µM)
O=C1Oc2ccccc2N/C1=C\C(=O)C1CC1 | inactive |  |  | 100 (≈ 436 µM) | 8 |  |  | inactive | inactive | inactive |  | 50 (≈ 218 µM) | 4 | 10 | 100 (≈ 436 µM) |  |  |  |  | inactive | MIC (Trichoderma reesei [3]; ATCC 13631, 24 h): 100 µg/mL (≈ 436 µM); zone of inhibition at 100 µg/mL (Trichoderma reesei [5]): 4 mm; inhibition zone (IZ) (Streptomyces griseus [6]): inactive; MIC (Streptomyces griseus [9]): inactive; MIC (Aspergillus niger [10]): inactive
CC1(C)S[C@@H]2[C@H](NC(=O)[C@H](N)c3ccccc3)C(=O)N2[C@H]1C(=O)O [AMPICILLIN] |  |  | 20 |  |  | 12.5 (≈ 35.8 µM) |  |  |  |  |  | 12.5 (≈ 35.8 µM) | 11 | 24 | 12.5 (≈ 35.8 µM) |  |  |  |  |  | zone of inhibition at 100 µg/mL (Bacillus subtilis [12]): 18 mm; MIC (Bacillus subtilis [13]; MTCC 10619, 24 h): 25 µg/mL (≈ 71.5 µM)
